Reference: PMC11268196, “Biochemical characterization of ClpB and DnaK from Anaplasma phagocytophilum” (Cell Stress & Chaperones, 2024)

Key:
[1] = target: T1, ApK (A. phagocytophilum DnaK) (Anaplasma phagocytophilum, UniProt Q2GKZ8); assay: fluorescence anisotropy of FITC-labeled peptide B2 (nucleotide effect on peptide binding); conditions: 2 mM ADP; indirect read-out through labelled peptide B2
T1 sequence (Q2GKZ8 1-645): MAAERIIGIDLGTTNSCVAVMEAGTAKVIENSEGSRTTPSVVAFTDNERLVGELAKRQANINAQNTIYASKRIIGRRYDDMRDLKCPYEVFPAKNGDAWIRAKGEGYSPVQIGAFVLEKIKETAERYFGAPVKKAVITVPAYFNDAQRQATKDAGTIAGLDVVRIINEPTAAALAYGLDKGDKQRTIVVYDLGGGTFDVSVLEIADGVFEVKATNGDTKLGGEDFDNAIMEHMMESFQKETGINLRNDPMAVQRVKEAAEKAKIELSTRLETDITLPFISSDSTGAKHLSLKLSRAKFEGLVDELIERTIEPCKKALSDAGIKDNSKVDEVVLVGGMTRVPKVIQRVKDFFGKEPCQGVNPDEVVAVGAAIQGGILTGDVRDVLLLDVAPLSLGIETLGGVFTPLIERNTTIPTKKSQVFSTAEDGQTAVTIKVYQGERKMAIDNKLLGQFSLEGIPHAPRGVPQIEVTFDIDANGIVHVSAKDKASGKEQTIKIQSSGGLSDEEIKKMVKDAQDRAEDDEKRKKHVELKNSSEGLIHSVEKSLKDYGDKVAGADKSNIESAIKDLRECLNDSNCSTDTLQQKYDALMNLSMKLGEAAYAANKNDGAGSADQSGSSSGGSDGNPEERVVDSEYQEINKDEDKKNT

[2] = target: T2, ApB (A. phagocytophilum ClpB) (Anaplasma phagocytophilum, UniProt Q2GL99); conditions: 5 mM ATP, 20 mM MgCl2, pH 7.4, 37 °C; basal (no casein or poly-lysine)
T2 sequence (Q2GL99 1-859): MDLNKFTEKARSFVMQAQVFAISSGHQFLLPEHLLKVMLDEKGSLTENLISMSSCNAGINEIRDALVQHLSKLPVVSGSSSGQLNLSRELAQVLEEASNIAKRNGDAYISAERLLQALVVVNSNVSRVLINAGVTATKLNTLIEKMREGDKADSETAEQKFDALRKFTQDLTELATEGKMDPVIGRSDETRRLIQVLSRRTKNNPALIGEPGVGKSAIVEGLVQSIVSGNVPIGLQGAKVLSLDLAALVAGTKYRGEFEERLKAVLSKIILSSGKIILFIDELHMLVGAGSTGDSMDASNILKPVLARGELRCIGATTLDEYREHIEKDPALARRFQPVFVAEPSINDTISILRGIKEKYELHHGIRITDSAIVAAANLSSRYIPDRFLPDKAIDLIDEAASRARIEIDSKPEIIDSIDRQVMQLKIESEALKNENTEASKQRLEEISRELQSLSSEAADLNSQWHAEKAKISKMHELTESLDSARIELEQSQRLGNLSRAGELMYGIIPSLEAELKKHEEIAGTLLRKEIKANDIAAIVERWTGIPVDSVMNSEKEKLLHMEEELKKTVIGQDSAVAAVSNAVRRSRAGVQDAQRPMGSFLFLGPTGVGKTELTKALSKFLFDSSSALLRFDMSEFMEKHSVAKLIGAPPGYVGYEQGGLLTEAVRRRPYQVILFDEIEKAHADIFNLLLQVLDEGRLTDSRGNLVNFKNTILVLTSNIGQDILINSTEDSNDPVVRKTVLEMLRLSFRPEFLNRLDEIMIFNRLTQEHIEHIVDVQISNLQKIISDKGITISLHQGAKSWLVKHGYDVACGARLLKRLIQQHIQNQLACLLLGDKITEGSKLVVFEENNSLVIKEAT

[3] = target: EcB (E. coli ClpB) (Escherichia coli, UniProt P63284); assay: malachite green phosphate release (ATPase); assay type: biochemical; conditions: 5 mM ATP, 20 mM MgCl2, pH 7.4, 37 °C; basal (no casein or poly-lysine)
Sequence of EcB (E. coli ClpB) (P63284 whole entry): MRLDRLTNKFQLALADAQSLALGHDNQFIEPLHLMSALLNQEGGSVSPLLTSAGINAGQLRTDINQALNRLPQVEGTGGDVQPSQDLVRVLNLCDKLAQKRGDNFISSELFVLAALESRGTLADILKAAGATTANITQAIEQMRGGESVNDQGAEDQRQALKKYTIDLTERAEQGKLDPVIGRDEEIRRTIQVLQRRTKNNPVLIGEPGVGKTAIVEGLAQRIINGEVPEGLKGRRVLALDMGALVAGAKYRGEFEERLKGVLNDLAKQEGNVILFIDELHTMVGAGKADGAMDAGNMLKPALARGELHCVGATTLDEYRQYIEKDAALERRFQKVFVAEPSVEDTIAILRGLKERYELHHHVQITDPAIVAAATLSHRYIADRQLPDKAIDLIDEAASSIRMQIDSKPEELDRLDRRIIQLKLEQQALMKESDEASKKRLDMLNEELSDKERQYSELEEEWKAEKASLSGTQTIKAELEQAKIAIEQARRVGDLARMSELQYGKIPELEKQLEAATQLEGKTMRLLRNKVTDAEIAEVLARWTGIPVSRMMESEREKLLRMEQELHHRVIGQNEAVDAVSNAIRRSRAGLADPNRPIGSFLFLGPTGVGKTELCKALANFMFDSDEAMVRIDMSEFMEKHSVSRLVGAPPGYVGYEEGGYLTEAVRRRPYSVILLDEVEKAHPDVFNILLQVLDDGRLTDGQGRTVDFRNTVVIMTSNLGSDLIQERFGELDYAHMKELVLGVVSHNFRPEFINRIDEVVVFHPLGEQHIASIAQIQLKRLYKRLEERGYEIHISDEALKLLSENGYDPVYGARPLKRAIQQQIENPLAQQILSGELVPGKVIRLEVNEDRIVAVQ

[4] = target: T1, ApK (A. phagocytophilum DnaK); assay: malachite green phosphate release (ATPase); assay type: biochemical; conditions: 5 mM ATP, 20 mM MgCl2, pH 7.4, 37 °C; basal (no casein or poly-lysine)
[5] = target: EcK (E. coli DnaK) (Escherichia coli, UniProt P0A6Y8); conditions: 5 mM ATP, 20 mM MgCl2, pH 7.4, 37 °C; basal (no casein or poly-lysine)
Sequence of EcK (E. coli DnaK) (P0A6Y8 2-638): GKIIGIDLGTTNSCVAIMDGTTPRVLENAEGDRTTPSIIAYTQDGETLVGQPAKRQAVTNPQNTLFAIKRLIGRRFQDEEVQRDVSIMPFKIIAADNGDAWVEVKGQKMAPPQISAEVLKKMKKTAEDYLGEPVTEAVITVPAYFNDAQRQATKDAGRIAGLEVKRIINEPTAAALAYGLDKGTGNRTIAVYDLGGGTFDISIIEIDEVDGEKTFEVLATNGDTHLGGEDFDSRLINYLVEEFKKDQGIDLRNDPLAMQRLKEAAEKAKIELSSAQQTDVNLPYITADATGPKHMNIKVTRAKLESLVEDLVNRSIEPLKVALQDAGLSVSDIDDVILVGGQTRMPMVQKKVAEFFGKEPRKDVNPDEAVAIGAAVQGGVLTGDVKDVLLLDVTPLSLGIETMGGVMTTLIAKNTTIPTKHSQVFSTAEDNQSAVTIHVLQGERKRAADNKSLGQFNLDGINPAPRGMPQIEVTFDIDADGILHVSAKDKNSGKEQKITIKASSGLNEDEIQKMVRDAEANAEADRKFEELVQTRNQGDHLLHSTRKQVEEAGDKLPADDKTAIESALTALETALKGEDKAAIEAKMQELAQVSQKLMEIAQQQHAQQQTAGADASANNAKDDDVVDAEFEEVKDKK

Row | SMILES | fluorescence anisotropy of FITC-labeled peptide B2 (nucleotide effect on peptide) [1] | ATPase activity [2] | ATPase activity [3] | ATPase activity [4] | ATPase activity [5]
1 | Nc1ncnc2c1ncn2[C@@H]1O[C@H](COP(=O)(O)OP(=O)(O)O)[C@@H](O)[C@H]1O [ADP] | ADP induced a strong binding of B2 to ApK | – | – | – | –
2 | Nc1ncnc2c1ncn2[C@@H]1O[C@H](COP(=O)(O)OP(=O)(O)OP(=O)(O)O)[C@@H](O)[C@H]1O [ATP] | – | the basal ATPase activity of ApB exceeded that of EcB | the basal ATPase activity of ApB exceeded that of EcB | The basal ATPase activity of ApK was lower than that of EcK | The basal ATPase activity of ApK was lower than that of EcK
